Molecules are shown by their SMILES. Where a name gives a salt, the structure may show the parent alone.

The record followed here is patent publication US12043614B2, “Salts of a Pim kinase inhibitor” (Incyte Corporation, priority 2015, dated 2024).

A short description of series [1]: Competitive stability study (slurry of Forms I-VI, XRPD). The conditions noted are these: 2 days, room temperature. The class given is physicochemical. Here is the method:
To evaluate the transformation of Compound 1 phosphate solid forms, competitive slurry experiments were performed as follows: to a saturated solution (1.5 mL) of Compound 1 phosphate Form I in the solvent as listed in Table 14 was added Form I (6 mg), followed by stirring to give a cloudy solution, then 6 mg each of Form II through Form VI were added to the mixture. The slurry was stirred for 2 days at room temperature and analyzed by XRPD.

For series [2], the target named is T1, Pim-1 (Homo sapiens, UniProt P11309).
T1 construct: purchased Invitrogen PV3503
The series is described as follows: Pim-1 kinase assay. In kind it is biochemical. The conditions noted are these: 1 mM ATP; read-out: IC50 PIM1 Enzyme (Ex. A). Here is the method: Pim-1 and Pim-3 kinase assays—20 μL reactions can be run in white 384 well polystyrene plates dotted with 0.8 μL compound/DMSO in the assay buffer (50 mM Tris, pH 7.5, 0.01% Tween-20, 5 mM MgCl2, 0.01% BSA, 5 mM DTT), containing 0.05 μM Biotin-labeled BAD peptide substrate (AnaSpec 62269), 1 mM ATP, and 2.5 pM (Pim-1, Invitrogen PV3503) or 1.25 pM (Pim-3, Millipore 14-738) enzyme for 1 h at 25° C. Reactions are stopped by addition of 10 μL STOP Buffer (150 mM Tris, pH=7.5, 150 mM NaCl, 75 mM EDTA, 0.01% Tween-20, 0.3% BSA) supplemented with Phospho-Bad (Ser112) Antibody (Cell Signaling 9291) diluted 666-fold, and Streptavidin donor beads (PerkinElmer 6760002) along with Protein-A acceptor beads (PerkinElmer 6760137) at 15 μg/mL each. Supplementation of the STOP buffer with beads and stopping the reactions are done under reduced light. Prior to the stopping reactions STOP buffer with beads is pre-incubated for 1 h in the dark at room temperature. After stopping the reactions, plates are incubated for 1 h in the dark at room temperature before reading on a PHERAstar FS plate reader (BMG Labtech) under reduced light.

In series [3] the target is T2, Pim-2 (Homo sapiens, UniProt Q9P1W9).
T2 construct: purchased Invitrogen PV3649
The experiment in a line: Pim-2 kinase assay. The class given is biochemical. The conditions noted are these: 1 mM ATP; read-out: IC50 PIM2 Enzyme (Ex. A). Here is the method: Pim-2 kinase assay—20 μL reactions are run in white 384 well polystyrene plates dotted with 0.8 μL compound/DMSO in the assay buffer (50 mM Tris, pH 7.5, 0.01% Tween-20, 5 mM MgCl2, 0.01% BSA, 5 mM DTT), containing 0.05 μM Fluorescein-labeled CREBtide peptide substrate (Invitrogen PV3508), 1 mM ATP, and 1 nM enzyme (Invitrogen PV3649) for 2 h at 25° C. Reactions are stopped by addition of 10 μL TR-FRET Dilution Buffer (Invitrogen PV3574) with 30 mM EDTA and 1.5 nM LanthaScreen Tb-CREB pSer133 antibody (Invitrogen PV3566). After 30 min. incubation at room temperature, plates are read on a PHERAstar FS plate reader (BMG Labtech).

For series [4], the target named is Pim-3 (Homo sapiens, UniProt Q86V86). The series is described as follows: Pim-3 kinase assay. In kind it is biochemical. The conditions noted are these: 1 mM ATP; read-out: IC50 PIM3 Enzyme (Ex. A).
In series [5] the test system is KMS12BM cells. The experiment in a line: Pim cell proliferation assay ([3H]-thymidine), KMS12BM. The class given is cell-based. The conditions noted are these: Homo sapiens, KMS-12-BM; read-out: IC50 Tumor cell proliferation (Ex. B, KMS12BM cells). Here is the method:
(§1) KM[…] and MOLM16 cells were purchased from DSMZ (Germany) and were maintained according to the recommendations of suppliers. To measure the anti-proliferation activities of test compounds, the cells were plated in their respective culture medium (2×10^3 cells/200 μL/well) into 96-well ultralow binding plates (Corning), with or without test compound(s). After 3 to 4 days, [3H]-thymidine (1 μCi/well) (PerkinElmer) in PBS (10 μL) was then added to the cell culture for an additional 12 hours before the incorporated radioactivity was separated by filtration with water through GF/B filters (Packard Bioscience) and measured by liquid scintillation counting with a TopCount (Packard Bioscience).

Series [6] relates to MOLM16 cells. The series is described as follows: Pim cell proliferation assay ([3H]-thymidine), MOLM16. In kind it is cell-based. The conditions noted are these: read-out: IC50 Tumor cell proliferation (Ex. B, MOLM16 cells). Here is the method: as §1
Series [7] has as its system pBAD in KMS12BM cells. The experiment in a line: Pim pBAD signaling assay in KMS12BM cells. In kind it is cell-based. The conditions noted are these: Homo sapiens, KMS-12-BM, 2.5 hours, read-out: IC50 pBAD KMS12BM cells (Ex. B).
Series [8] relates to pBAD in KMS12BM cells. The experiment in a line: pBAD signaling assay in human whole blood, KMS12BM cells. The class given is cell-based. The conditions noted are these: KMS-12-BM, read-out: IC50 pBAD whole blood (Ex. B, KMS12BM cells).
Series [9] concerns pBAD in MOLM-16 cell. The series is described as follows: pBAD signaling assay in human whole blood, MOLM16 cells. The conditions noted are these: read-out: IC50 pBAD whole blood (Ex. B, MOLM16 cells). In kind it is cell-based.
The nature of series [10]: Stability study of Form I under environmental conditions (XRPD). The class given is physicochemical. From the text:
Compound 1 phosphoric acid salt Form I was subjected to various different environmental conditions to assess stability.

A short description of series [11]: Stability study under phase equilibration conditions (XRPD). In kind it is physicochemical. The conditions noted are these: 2-3 days, all solvents and solvent mixtures tested. On the procedure: Phase equilibration studies were designed to provide information on a predominant crystal form for phase identification. Compound 1 phosphoric acid salt (Form I) was equilibrated in a representative group of solvents at 25±1° C. (chloroform, DMF, 1,4-dioxane, methanol and methanol/20% water, 2-methoxyethanol and 2-methoxyethanol/20% water, MIBK, THF and THF/20% water, acetone, n-BuOH and n-BuOH/20% water, EtOH and EtOH/20% water, isobutyl acetate, 1-propanol and 1-propanol/20% water, isopropanol, water, and MEK) and 50±1° C. (chloroform, DMF, 1,4-dioxane, methanol and methanol/20% water, 2-methoxyethanol and 2-methoxyethanol/20% water, MIBK, THF and THF/20% water, acetone, n-BuOH and n-BuOH/20% water, EtOH and EtOH/20% water, EtOAc, ethyl formate, 1-propanol and 1-propanol/20% water, isopropanol, IPA/MeOH/Water (1.73/0.79/0.08), IPA/water (3/2), water) controlled by IKA® ETS-D5 temperature controller and IKA® RCT basic safety control.
To 3 mL of a solvent or a mixture of solvents (chosen from a list for the respective temperature) was added Compound 1 phosphate (Form I) until a cloudy solution was obtained, then, about 30 mg of Compound 1 phosphate (Form I) was added to the cloudy solution. The mixture was stirred at 25±1° C. or 50±1° C., respectively, for 2-3 days. The solid was filtered and analyzed by XRPD. […]

Series [12] has as its target PIM kinase. The series is described as follows: Pim enzyme assays (isoform not given). In kind it is biochemical. The conditions noted are these: 1 mM ATP; Pim isoform not stated.

T1 sequence (P11309 whole entry): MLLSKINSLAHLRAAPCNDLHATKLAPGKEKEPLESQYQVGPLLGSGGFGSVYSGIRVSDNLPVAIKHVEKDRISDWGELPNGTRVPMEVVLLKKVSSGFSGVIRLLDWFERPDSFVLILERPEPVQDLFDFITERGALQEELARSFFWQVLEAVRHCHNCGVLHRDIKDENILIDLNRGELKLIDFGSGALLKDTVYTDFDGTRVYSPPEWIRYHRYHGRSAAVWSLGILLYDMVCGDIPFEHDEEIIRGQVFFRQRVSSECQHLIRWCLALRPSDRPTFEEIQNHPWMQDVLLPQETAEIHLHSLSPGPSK
T2 sequence (Q9P1W9 whole entry): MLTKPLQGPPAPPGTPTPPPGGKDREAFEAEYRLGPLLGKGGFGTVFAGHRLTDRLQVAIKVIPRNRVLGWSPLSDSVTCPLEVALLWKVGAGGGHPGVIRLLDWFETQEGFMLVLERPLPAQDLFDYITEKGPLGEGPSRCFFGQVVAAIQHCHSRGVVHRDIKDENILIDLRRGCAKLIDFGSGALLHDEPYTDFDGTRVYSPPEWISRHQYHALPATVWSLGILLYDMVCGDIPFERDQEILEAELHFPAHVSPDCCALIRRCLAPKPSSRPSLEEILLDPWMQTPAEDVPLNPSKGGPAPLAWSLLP

For `C[C@H]1CN(c2c(NC(=O)c3ccc(F)c(-c4c(F)cccc4F)n3)cnc3c2CC[C@H]3O)C[C@@H](N)[C@@H]1O` [Compound 1 H3PO4 salt, N-{(7R)-4-[(3R,4R,5S)-3-amino-4-hydroxy-5-methylpiperidin-1-yl]-7-hydroxy-6,7-dihydro-5H-cyclopenta[b]pyridin-3-yl}-6-(2,6-difluorophenyl)-5-fluoropyridine-2-carboxamide phosphoric acid salt], the Solid state form result in series [1] (IPA/MeOH/water/DMSO (56.6/28.3/3.0/12.1)) and in series [1] (IPA/MeOH/water/DMSO (61.8/28.2/2.9/7.1)) was “Form I” each time.
For `C[C@H]1CN(c2c(NC(=O)c3ccc(F)c(-c4c(F)cccc4F)n3)cnc3c2CC[C@H]3O)C[C@@H](N)[C@@H]1O` [Compound 1 di-HCl salt, N-{(7R)-4-[(3R,4R,5S)-3-amino-4-hydroxy-5-methylpiperidin-1-yl]-7-hydroxy-6,7-dihydro-5H-cyclopenta[b]pyridin-3-yl}-6-(2,6-difluorophenyl)-5-fluoropyridine-2-carboxamide dihydrochloride], the IC50 was below 35 nM in series [2]; below 35 nM in series [3]; below 35 nM in series [4]; below 100 nM in series [5]; below 35 nM in series [6]; below 35 nM in [7]. Also, the IC50 is below 200 nM in series [8] and below 100 nM in series [9].
For the compound `C[C@H]1CN(c2c(NC(=O)c3ccc(F)c(-c4c(F)cccc4F)n3)cnc3c2CC[C@H]3O)C[C@@H](N)[C@@H]1O` [Compound 1 phosphoric acid salt Form I, N-{(7R)-4-[(3R,4R,5S)-3-amino-4-hydroxy-5-methylpiperidin-1-yl]-7-hydroxy-6,7-dihydro-5H-cyclopenta[b]pyridin-3-yl}-6-(2,6-difluorophenyl)-5-fluoropyridine-2-carboxamide phosphoric acid salt], the “Crystalline Form (XRPD)” value was “Form I” in series [10] (40° C./75% RH for 1 week); “Form I” in series [10] (50° C. vacuum dry for 1 day); “Form I” in series [10] (100° C. vacuum dry for 1 day); “Form I” in [10] (210° C. vacuum dry followed by 40° C./75% RH for 4 weeks); “Not Form I” in series [10] (210° C. vacuum dry for 20 min); “Form I” in series [10] (Suspension in 0.5% methyl cellulose in water). Moreover, the “Solid form after phase equilibration (XRPD)” value in [11] (25±1° C.) and in [11] (50±1° C.) was “Form I” each time.
In series [12], `C[C@H]1CN(c2c(NC(=O)c3ccc(F)c(-c4c(F)cccc4F)n3)cnc3c2CC[C@H]3O)C[C@@H](N)[C@@H]1O` [Compound 1, N-{(7R)-4-[(3R,4R,5S)-3-amino-4-hydroxy-5-methylpiperidin-1-yl]-7-hydroxy-6,7-dihydro-5H-cyclopenta[b]pyridin-3-yl}-6-(2,6-difluorophenyl)-5-fluoropyridine-2-carboxamide] gave an IC50 below 100 nM.
